# Legend:
# human osteoblast cells = assay: Standard tumor promoter assay: Lucifer Yellow dye transfer, DDT-induced uncoupling; type: cell-based; conditions: DDT 13 μM for 60 minutes, n=13; control without DDT median 14.5 cells
# From the text: The compound 1,1-bis(p-chlorophenyl)-2,2,2-trichlorethane, also known as the insecticide DDT, is an inhibitor of gap junctional communication, and has tumor promoting abilities. It inhibits cell-to-cell communication by reducing the gap junction number and size, and exposure to DDT is associated with decreased cellular levels of phosphorylated (active) forms of the gap junction protein Cx43. These actions are considered pivotal for the compound's oncogenic properties (X. Guan, et al. (1996) Carcinogenesis, 17 1791-1798; R. J. Ruch, et al. (1994) Carcinogenesis, 15 301-306); B. V. Madhukar, et al. (1996) Cancer Lett. 106 117-123). As a means of monitoring the therapeutic efficacy of the isopeptides, the effects of the isopeptides on DDT-induced uncoupling in human osteoblast cells can be determined. […]
# After harvesting, the mononuclear fraction is washed once with culture medium and centrifuged at 1800 rpm for 10 minutes. Subsequently cells are counted and plated in culture medium at 8×10^6 cells/100 mm dish. […]
# After culturing, cells are affixed to a PDMI-2 culture chamber (Medical Systems Corp.), maintained at 37° C. with superfused CO2, on a Zeiss Axiovert microscope. […] A cell in the monolayer is carefully injected with LY for 30 seconds; the micropipette is removed from the cell and after 30 seconds the number of cells that show dye transfer is counted. […]
# [1] = test system: calcium-induced arrhythmias; assay: Calcium-induced arrhythmia model (Lynch et al.) in mice; type: in vivo, Male NMRI mice; conditions: isopeptide 1 nmol/kg i.v. 3 min before CaCl2 infusion; (tarr(testcompound)-tarr(vehicle))x100/tarr(vehicle), time lag to first conduction block
# Protocol: Isopeptides suitable for administration to cardiac cells can be identified in an in vivo model of calcium-induced arrhythmias according to the model of Lynch et al. (1981) J Cardiovasc. Pharmacol. 3: 49-60. Mice (25-30 g) are anaesthetized with a neurolept anaesthetic combination and an i.v. cannula is inserted into the tail vein. A lead II ECG signal is recorded continuously by positioning a stainless steel ECG electrodes on the right forelimb and on the left hind limb. The ground electrode is placed on the right hind limb. The signal is amplified (x 5.000-10.000) and filtered (0.1-150 Hz) via a Hugo Sachs Electronic model 689 ECG module. The analog signal is digitized via a 12 bit data acquisition board (Data Translation model DT321) and sampled at 1000 Hz using the Notocord HEM 3.1 software for Windows NT. After a 10-minute equilibration period, the test sample of peptide is injected into the tail vein. Mice pre-treated with buffer are tested as a measure of the control level in untreated animals. The injection volume is 100 μl in all experiments.
# Infusion of CaCl2 (30 mg/ml, 0.1 ml/min≈100 mg/kg/min (calcium chloride-2-hydrate, Riedel-de Haën, Germany)) is started 3 min after i.v. administration of drug or vehicle. The time lag to onset of 2nd degree AV-block is determined as the time from the start of CaCl2 infusion until the first arrhythmic event occurs. An event of 2nd degree AV-block is defined as intermittent failure of the AV conduction characterised by a P-wave without the concomitant QRS complex.
# Responses are expressed relative to the time until 2nd degree AV-block occurred in vehicle treated mice. The maximal effect of compounds (e.g., isopeptides, AAP, AAP10 or controls) is determined. […]
# An intravenous cannula was inserted into the tail vein. The lead II ECG signal was recorded continuously by positioning of stainless steel ECG electrodes on the right forelimb and on the left hind limb. […]
Molecule,number of cells that show dye transfer (median) (human osteoblast cells),% response [1] [%]
"Clc1ccc(C(c2ccc(Cl)cc2)C(Cl)(Cl)Cl)cc1 [DDT, 1,1-bis(p-chlorophenyl)-2,2,2-trichlorethane]",7,–
H-Gly-iso-D-Lys(4-methoxybenzoyl)-OH [Compound 18],–,16
H-iso-Gln(NH(4-methoxybenzyl))-Ala-OH [Compound 101],–,68
H-iso-Gln(NH(4-methoxybenzyl))-D-Ala-OH [Compound 116],–,25
H-Gly-iso-D-Lys(4-nitrobenzoyl)-OH [Compound 19],–,33

# Source: patent publication US20070238671A1, “Isopeptide Gap Junction Modulators” (priority 2003, published 2007)
